In patent US4550186A, “Binuclear copper (II) carboxylates formed from amine-carboxyboranes” (Duke University, priority 1983, dated 1985):

Key:
[1] = biological target: deoxyribonucleic acid polymerase; test: In vitro deoxyribonucleic acid polymerase activity in isolated nuclei; assay type: biochemical, mouse; details: isolated nuclei from Ehrlich ascites cells, read-out: ID50, Deoxyribonucleic acid polymerase activity
Method: (§1) CF1 male mice (~30 g) were implanted with 2×10^6 Ehrlich ascites tumor cells, intraperitoneally on Day 0. Compound I was suspended by homogenation in 0.05% polysorbate.80-water and administered intraperitoneally at 10 and 20 mg/kg for 9 days to determine its effectiveness for inhibition of tumor growth. Mice were sacrificed on Day 10, and the ascites fluid was collected from the peritoneal cavity. The volume and ascrit (packed cell volume) were determined for each animal and the percent inhibition of tumor growth was calculated. For the metabolic studies, mice were treated on Days 8 and 9 with 10 mg/kg of Compound I, intraperitoneally. The animal was sacrificed on Day 10 and the ascites fluid harvested. The in vitro metabolic studies were performed at […] final concentration of Compound I.
In vitro and in vivo nuclear deoxyribonucleic acid polymerase activity was determined on isolated Ehrlich ascites cell nuclei. The incubation was that described by Sawada et al [Can. Res., 34, 3341 (1974)] except that [methyl-^3 H] deoxythymidine triphosphate (82.4 Ci/mmol) was used. The acid insoluble nucleic acid was collected on GF/F filters and counted. Nuclear ribonucleic acid polymerase activities were determined on enzymes isolated from nuclei. […] The acid insoluble ribonucleic acid was collected on nitrocellulose filters and counted.

Holtzman male rats = test: Cholesterol absorption study; assay type: in vivo, rat; details: rats treated 14 days, over a 24-hr period
Method: Holtzman male rats (~400 g) were administered the test drug orally for 14 days at 10 mg/kg/day. On day 13, 10 μCi of 1,2-^3 H(N)-cholesterol (40.7 Ci/mmol) was administered to the rat orally. Twenty-four hours later, the blood was collected and the serum separated by centrifugation. Both the serum and the precipitate were counted.

Ehrlich ascites cells = test: Number of cells in ascites fluid; assay type: in vivo, mouse
Method: as §1

[2] = system: ribonucleic acid synthesis of Ehrlich ascites cells; test: In vitro whole cell incorporation: ribonucleic acid synthesis; assay type: cell-based, mouse; details: preliminary, 60 min, read-out: ID50, ribonucleic acid synthesis
Method: as §1
In vitro incorporation of ^3 H-thymidine, ^3 H-uridine, or ^3 H-leucine was determined using 10^6 Ehrlich ascites cells, 1 μCi labeled precursor, minimum essential medium and varying final concentrations of drug from 0.25-1.0 mM. The tubes were incubated at 37° C. for 60 min and inactivated by trichloroacetic acid. The acid insoluble labeled deoxyribonucleic acid was collected on GF/F glass filter discs and ribonucleic acid and protein were precipitated on nitrocellulose filters by vacuum suction. Results are expressed as dpm of incorporated precursor per hour per 10^6 cells.

[3] = system: Mitochondrial Citrate Exchange; test: In vitro liver enzyme study: mitochondrial citrate exchange; assay type: biochemical, mouse; details: in vitro CF1 liver, 10 min
Method: In vitro enzymatic studies were determined using 10% homogenates of CF1 male mouse liver with 50-200 μM of test drugs. In vivo enzymatic studies were determined using 10% homogenates of liver from CF1 male mice obtained after administering the agents for 16 days at a dose ranging from 2.5-20 mg/kg/day intraperitoneally. The liver homogenates for both in vitro and in vivo studies were prepared in 0.25M sucrose and 0.001M (ethylenedinitrilo)tetraacetic acid. Acetyl coenzyme A synthetase and adenosine triphosphate dependent citrate lyase activities were determined spectrophotometrically at 540 nm as the hydroxylamate of acetyl coenzyme A formed after 30 min at 37° C. Mitochondrial citrate exchange was determined by the procedure of Robinson et al [Eur. J. Biochem., 216, 63 (1970)] using ^14 C-sodium bicarbonate (41 mCi/mmol) incorporated into mitochondrial ^14 C-citrate after isolating rat mitochondria (9000 g×10 min) from the homogenates. The exchanges of the ^14 C-citrate were determined after incubating the mitochondrial fraction which was loaded with labeled citrate and test drugs for 10 min. Then the radioactivity was measured in the mitochondrial and supernantant fractions in scintillation fluid and expressed as a percentage. Cholesterol side chain oxidation was determined by the method of Kritchevsky and Tepper [Artherosclerosis, 18, 93 (1973)] using (26-^14 C) cholesterol (50 mCi/mmol) and mitochondria isolated from rat liver homogenates. […] Fatty acid synthetase activity was determined by the method of Brady et al [J. Biol. Chem., 235, 3093 (1960)] using [2-^14 C] malonyl-coenzyme A (37.5 mCi/mmol) which was incorporated into newly synthesized fatty acids that were extracted with ether and counted. Acyl transferase activity was determined with glycerol-3phosphate [L-2-^3 H(N)] […] HCl and counted. Phosphatidate phosphohydrolase activity was measured as the inorganic phosphate released after 30 min from phosphatidic acid by the method of Mavis et al [J. Lipid Res., 19, 467 (1978)]. […]

Substance: {Cu[(CH3)3 N.BH2 CO2 ]2.(CH3)3 N.BH2 COOH} [Compound I]
- IC50 [1]: 454 µM
- adsorption of orally administered 3H-cholesterol reduced (Holtzman male rats): 85%
- number of cells in the ascites fluid (Ehrlich ascites cells; after drug administration for two days (control 226×10^6 /ml)): 1.02e+08 mL⁻¹
- Number of cells × 10^6 /ml ascites fluid (Ehrlich ascites cells; in vivo, 10 mg/kg/day I.P. on Days 8 and 9): 45 ± 4 % Control
- IC50 [2]: 1.82 mM
- Mitochondrial Citrate Exchange ([3]; 50 μM): 105 ± 6 Percent Control
- Mitochondrial Citrate Exchange ([3]; 100 μM): 104 ± 6 Percent Control
- Mitochondrial Citrate Exchange ([3]; 200 μM): 103 ± 7 Percent Control
